Test results as given in ChEMBL document CHEMBL4431301, “The Medicinal Chemistry of Dengue Virus” (J Med Chem, 2016).
Where a SMILES comes first, the peptide text is derived from it.

Experiments:
dengue virus type 4 [1] = assay: Antiviral activity against Dengue virus 4 P11-08 infected in african green monkey Vero cells assessed as reduction in virus replication after 72 hrs by foci-forming assay; type: functional, organism-based; conditions: P11-08, Vero
dengue virus type 3 [2] = assay: Antiviral activity against Dengue virus 3 P12-08 infected in african green monkey Vero cells assessed as reduction in virus replication after 72 hrs by foci-forming assay; type: functional, organism-based; conditions: P12-08, Vero
dengue virus type 2 [3] = assay: Antiviral activity against Dengue virus 2 NGC infected in african green monkey Vero cells assessed as reduction in virus replication after 72 hrs by foci-forming assay; type: functional, organism-based
[4] = Cytotoxicity against african green monkey Vero cells after 72 hrs by MTT assay; type: cell-based; conditions: chlorocebus sabaeus
dengue virus type 1 [5] = assay: Antiviral activity against Dengue virus 1 P03-08 infected in african green monkey Vero cells assessed as reduction in virus replication after 72 hrs by foci-forming assay; type: functional, organism-based; conditions: P03-08, Vero
dengue virus type 2 [6] = assay: Antiviral activity against Dengue virus 2 infected in human A549 cells assessed as decrease in viral envelope protein production after 48 hrs by CFI assay; type: functional, organism-based; conditions: A549, 48 h
[7] = Selectivity index, ratio of CC50 for human A549 cells to EC50 for Dengue virus 2 infected in human A549 cells; type: toxicity, cell-based; conditions: read-out: Ratio CC50/EC50
dengue virus type 2 [8] = assay: Antiviral activity against Dengue virus 2 infected in african green monkey Vero cells preincubated with cells followed by viral infection measured after 4 days by immunofluorescence staining based fluorescence microscope; type: functional, organism-based
Genome polyprotein [9] = target: T1, Genome polyprotein (dengue virus type 2, UniProt P29990); assay: Inhibition of Dengue virus 2 NS2B-NS3 protease expressed in Escherichia coli BL21(DE3) using Boc-Gly-Arg-Arg-7-amino-4-methylcoumarin as substrate after 10 mins by fluorescence assay
Genome polyprotein [10] = target: T1, Genome polyprotein; assay: Inhibition of Dengue virus 2 GFP/DsRed fused NS2B-NS3 protease co-transfected in HEK293T cells by Western blot analysis; type: cell-based
dengue virus type 1 [11] = assay: Antiviral activity against Dengue virus 1 infected in monkey LLC-MK2 cells assessed as reduction in viral infection at 2 to 5 uM by focus forming unit assay; type: functional; set-up: scale not given: the % may be the effect or the level left
dengue virus type 4 [12] = assay: Antiviral activity against Dengue virus 4 infected in monkey LLC-MK2 cells assessed as reduction in viral infection at 2 to 5 uM by focus forming unit assay; type: functional; set-up: scale not given: the % may be the effect or the level left
dengue virus type 2 [13] = assay: Antiviral activity against Dengue virus 2 infected in monkey LLC-MK2 cells assessed as reduction in viral infection at 2 to 5 uM by focus forming unit assay; type: functional; set-up: scale not given: the % may be the effect or the level left
dengue virus type 3 [14] = assay: Antiviral activity against Dengue virus 3 infected in monkey LLC-MK2 cells assessed as reduction in viral infection at 2 to 5 uM by focus forming unit assay; type: functional; set-up: scale not given: the % may be the effect or the level left
dengue virus type 3 [15] = assay: Antiviral activity against Dengue virus 3 H87 infected in BHK21 cells assessed as reduction in viral titer after 48 hrs by plaque assay; type: functional, organism-based; conditions: H87, BHK-21, 48 h
dengue virus type 4 [16] = assay: Antiviral activity against Dengue virus 4 H241 infected in BHK21 cells assessed as reduction in viral titer after 48 hrs by plaque assay; type: functional, organism-based; conditions: H241, BHK-21, 48 h
dengue virus type 2 [17] = assay: Antiviral activity against Dengue virus 2 NGC infected in BHK21 cells assessed as reduction in viral titer after 48 hrs by plaque assay; type: functional, organism-based; conditions: BHK-21, 48 h
dengue virus type 1 [18] = assay: Antiviral activity against Dengue virus 1 West Pacific infected in BHK21 cells assessed as reduction in viral titer after 48 hrs by plaque assay; type: functional, organism-based; conditions: BHK-21, 48 h
dengue virus type 2 [19] = assay: Antiviral activity against Dengue virus 2 NGC infected in human A549 cells assessed as reduction in viral envelope protein production after 48 hrs by CFI assay; type: functional, organism-based; conditions: A549, 48 h
[20] = Cytotoxicity against BHK21 cells assessed as cell viability after 3 days by CellTiter Glo assay; type: cell-based, Mesocricetus auratus, BHK-21; conditions: hamster
[21] = Inhibition of envelope protein mediated membrane fusion in Dengue virus TSV01 infected in mosquito C6/36 cells after 1 hr by propidium iodide staining based fluorescence assay; type: cell-based; conditions: TSV01, C6/36, 1 h
[22] = Inhibition of envelope protein mediated membrane fusion in Dengue virus TSV01 infected in mosquito C6/36 cells assessed as trypsin degradation after 1 hr by SDS-PAGE method; type: cell-based; conditions: TSV01, C6/36, 1 h
dengue virus type 2 [23] = assay: Antiviral activity against Dengue virus 2 NGC infected in BHK21 cells assessed as reduction in viral titer after 3 days by RT-PCR method; type: functional, organism-based; conditions: BHK-21, 72 h
[24] = target: Genome polyprotein (dengue virus type 2) (UniProt P29990); assay: Inhibition of the Dengue virus 2 NS2B-NS3 protease using Bz-nKRR-AMC as substrate at 300 uM preincubated for 15 mins followed by substrate addition measured after 30 mins by fluorescence assay
[25] = Cytotoxicity against human HuH7 cells assessed as cell viability after 48 hrs by Celltiter-Glo luminescent assay; type: cell-based, Huh-7
dengue virus type 2 [26] = assay: Antiviral activity against Dengue virus 2 infected in human HuH7 cells after 48 hrs by CFI assay; type: functional, organism-based; conditions: Huh-7, 48 h
[27] = Cytotoxicity against BHK21 cells assessed as cell viability after 48 hrs by Celltiter-Glo luminescent assay; type: cell-based, Mesocricetus auratus, BHK-21; conditions: hamster

Cc1ccc(S(=O)(=O)Nc2cc(SCC(=O)O)c(O)c3ccccc23)cc1[N+](=O)[O-]
EC50 (dengue virus type 4 [1]): 740 nM
EC50 (dengue virus type 3 [2]): 2430 nM
EC50 (dengue virus type 2 [3]): 980 nM
CC50 at 72 h [4]: 67.3 µM
EC50 (dengue virus type 1 [5]): 970 nM

CC(=O)O[C@H]1[C@H]2c3cc4c(cc3CN3CCC(=C[C@@H]1O)[C@H]23)OCO4
EC50 (dengue virus type 2 [6]): 400 nM
selectivity ratio [7]: > 750

O=C(Nc1nc2cc(O)c(O)cc2s1)c1ccccc1Oc1ccc2cc(O)ccc2c1
EC50 (dengue virus type 2 [8]): 800 nM
IC50 (Genome polyprotein [9]): 4.2 µM
IC50 (Genome polyprotein [10]): 3.2 µM

CC[C@H](C)[C@H](NC(=O)[C@H](C)NC(=O)CNC(=O)[C@H](Cc1ccccc1)NC(=O)[C@@H](NC(=O)[C@H](CCC(N)=O)NC(=O)[C@H](Cc1cnc[nH]1)NC(=O)[C@H](CC(C)C)NC(=O)[C@H](C)NC(=O)[C@H](CCCCN)NC(=O)CNC(=O)[C@@H](NC(=O)[C@H](CO)NC(=O)[C@@H](NC(=O)[C@H](Cc1ccccc1)NC(=O)[C@@H](NC(=O)CNC(=O)CNC(=O)[C@H](CC(C)C)NC(=O)[C@H](CO)NC(=O)CNC(=O)[C@H](Cc1ccccc1)NC(=O)[C@H](CC(=O)O)NC(=O)[C@H](Cc1c[nH]c2ccccc12)NC(=O)[C@H](C)NC(=O)[C@@H](NC(=O)[C@H](CC(=O)O)NC(=O)CNC(=O)[C@H](CC(C)C)NC(=O)[C@@H](NC(=O)[C@H](C)NC(=O)[C@@H](N)CCSC)[C@@H](C)CC)[C@@H](C)O)C(C)C)[C@@H](C)O)[C@@H](C)CC)C(C)C)C(=O)N[C@@H](Cc1ccc(O)cc1)C(=O)O (H-MAILGDTAWDFGSLGGVFTSIGKALHQVFGAIY-OH)
Activity (dengue virus type 1 [11]): 50%
Activity (dengue virus type 4 [12]): 50%
Activity (dengue virus type 2 [13]): 50%
Activity (dengue virus type 3 [14]): 50%

COc1ccc(-c2csc(NC(=O)c3cc(C(C)(C)C)cc(C(C)(C)C)c3)n2)cc1
EC50 (dengue virus type 3 [15]): 1000 to 4100 nM
EC50 (dengue virus type 4 [16]): 1000 to 4100 nM
EC50 (dengue virus type 2 [17]): 1600 nM
EC50 (dengue virus type 1 [18]): 1000 to 4100 nM
EC50 (dengue virus type 2 [19]): 1000 nM

O=C(O)c1cc(=O)c2ccc(S[C@@H](/C=C/C=C\CCOc3ccc(Cl)c(Cl)c3)[C@H](O)c3cccc(C(F)(F)F)c3)cc2o1
CC50 at 72 h [20]: 48.7 µM
IC50 [21]: 6.8 µM
IC50 [22]: 6.8 µM
EC50 (dengue virus type 2 [23]): 9.8 µM

Cc1cc(N2CCN(C)CC2)ccc1NC(=O)c1c2c(nc3ccccc13)CCN(Cc1ccccc1)C2
inhibition [24]: 85%
CC50 at 48 h [25]: 55 µM
EC50 (dengue virus type 2 [26]): 5 µM
CC50 at 48 h [27]: > 300 µM
